According to PubChem BioAssay (NCI):
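Protocol summary: plate cells (96-well), add compound at 5 concentrations, incubate 48 h, interpolate endpoints linearly. Definition used: TGI = concentration required for complete inhibition of growth.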

Experiments:
Assay in all cases: growth of human tumour cells (NCI), 48 h
DMS 273 small cell lung = test system: DMS 273 small cell lung
U251 CNS = test system: U251 CNS
SNB-75 CNS = test system: SNB-75 CNS
UO-31 renal = test system: UO-31 renal
HCT-15 colon = test system: HCT-15 colon
OVCAR-5 ovarian = test system: OVCAR-5 ovarian
NCI-H23 lung = test system: NCI-H23 lung
SF-539 CNS = test system: SF-539 CNS
NCI-H522 lung = test system: NCI-H522 lung
LOX IMVI melanoma = test system: LOX IMVI melanoma
COLO 205 colon = test system: COLO 205 colon
NCI-H460 lung = test system: NCI-H460 lung
NCI-H226 lung = test system: NCI-H226 lung
SK-MEL-28 melanoma = test system: SK-MEL-28 melanoma
SK-MEL-2 melanoma = test system: SK-MEL-2 melanoma
HOP-92 NSCLC = test system: HOP-92 NSCLC
K-562 leukemia = test system: K-562 leukemia
TK-10 renal = test system: TK-10 renal
MALME-3M melanoma = test system: MALME-3M melanoma
A549 NSCLC = test system: A549 NSCLC
DLD-1 colon = test system: DLD-1 colon
HCC-2998 colon = test system: HCC-2998 colon
SF-295 CNS = test system: SF-295 CNS
M19-MEL melanoma = test system: M19-MEL melanoma
SR leukemia = test system: SR leukemia
UACC-62 melanoma = test system: UACC-62 melanoma
SNB-19 CNS = test system: SNB-19 CNS
KM12 colon = test system: KM12 colon
SF-268 CNS = test system: SF-268 CNS
HOP-18 NSCLC = test system: HOP-18 NSCLC
SK-MEL-5 melanoma = test system: SK-MEL-5 melanoma
OVCAR-8 ovarian = test system: OVCAR-8 ovarian
XF 498 CNS = test system: XF 498 CNS
LXFL 529 NSCLC = test system: LXFL 529 NSCLC
RXF 393 renal = test system: RXF 393 renal
RPMI-8226 leukemia = test system: RPMI-8226 leukemia
OVCAR-4 ovarian = test system: OVCAR-4 ovarian
786-0 renal = test system: 786-0 renal
SK-OV-3 ovarian = test system: SK-OV-3 ovarian
HT29 colon = test system: HT29 colon
IGROV1 ovarian = test system: IGROV1 ovarian
SN12C renal = test system: SN12C renal
CCRF-CEM leukemia = test system: CCRF-CEM leukemia
HCT-116 colon = test system: HCT-116 colon
ACHN renal = test system: ACHN renal
SW-620 colon = test system: SW-620 colon
HL-60(TB) leukemia = test system: HL-60(TB) leukemia
OVCAR-3 ovarian = test system: OVCAR-3 ovarian
UACC-257 melanoma = test system: UACC-257 melanoma
SNB-78 CNS = test system: SNB-78 CNS
M14 melanoma = test system: M14 melanoma
MOLT-4 leukemia = test system: MOLT-4 leukemia
KM20L2 colon = test system: KM20L2 colon
EKVX NSCLC = test system: EKVX NSCLC

Measured: TGI

CC1CC2OC(=O)C3CC(O)CC(=C23)[C@@]12C[C@@H](c1ccoc1)OC2=O (some centres undefined)
> 100 µM: all assays above
